Here are results for 15 compounds from patent US4822800A (Ortho Pharmaceutical Corporation, priority 1986, dated 1989).

Read-outs that look alike come from different tables or passages of the source.

Test [1] concerns adult mongrel dogs. Briefly: acute in vivo cardiotonic activity in anesthetized dogs. Set-up: species or system dog (adult mongrel). Particulars: Canis lupus familiaris, cardiotonic, relative to controls; for change in vivo at 1.875 mg/kg: dose 1.875 mg/kg intravenous; for change in vivo at 0.875 mg/kg: dose 0.875 mg/kg intravenous. How it is done: The acute in vivo cardiotonic activity of compounds prepared according to the present invention was determined according to a modification of the procedure described by Alousi et al., Circ. Res., 45, 666 (1979).
In particular, adult mongrel dogs were anesthetized with sodium pentobarbital and were artificially respired. Arterial pressure was monitored via a femoral artery, and the pulse pressure was used to trigger a cardiotachometer for heart rate. Left ventricular pressure was determined with a Millar catheter, and dP/dt (the change in ventricular pressure with time) was derived. Cardiac output was determined by measuring ascending aortic blood flow with an electromagnetic flow probe, and myocardial contractile force was measured with a Walton Brodie strain gauge sutured to the right ventricle. Lead II EKG was also recorded.
A standard dose (10 μg/kg/min) of dopamine was administered to assess myocardial responsiveness.
Compounds of the invention were administered by intravenous infusion or bolus […] administration, and the effects on cardiovascular parameters were determined.
Dose related effects of the test compound on blood pressure (BP), heart rate (HR), maximum change in left ventricular pressure with time (dP/dt max),% change in cardiac force (CF) and the increase in mean arterial blood pressure relative to controls (MABP) were compared to pretreatment control values, expressed as a% change and rated for activity.

Test [2] has as its system adult mongrel dogs. Description: renal vasodilating activity in anesthetized dogs. Format: in vivo, dog (adult mongrel). Particulars: Canis lupus familiaris, renal vasodilator, relative to controls; for change in vivo at 1.2 mg/kg: dose 1.2 mg/kg intravenous; for change in vivo at 6.2 mg/kg: dose 6.2 mg/kg intravenous; for change in vivo at 13.9 mg/kg / change in vivo at up to 13.9 mg/kg: dose 13.9 mg/kg intravenous. The procedure: Goldberg et al, J. Pharmacol. Exp. Ther., 163, 188 (1968), performed an investigation of the structural requirements for dopamine-like renal vasodilation of phenethylamines and apomorphine. The following procedure is a variation of the assay described in that report.
Adult mongrel dogs were anesthetized and surgically prepared for electromagnetic measurement of renal artery blood flow. A carotid artery was cannulated for measuring arterial blood pressure, and drugs were administered intravenously. Heart rate was monitored with a cardiotachometer. Renal vascular resistance was calculated as the ratio of mean arterial blood pressure/renal artery blood flow. Dopamine was infused intravenously at 3 μg/kg/min for ten minutes (at an infusion rate of about 1 ml/min) to determine responsiveness of each dog to renal dopamine receptor stimulation. Cumulative dose-response data were obtained by infusing a compound of this invention at progressively increasing (usually three-fold) infusion rates, each dose being infused for five minutes. The maximum % increase from pre-drug control in renal artery blood flow (or a decrease in renal vascular resistance) was determined for each infusion dose.
RBF values are percent change in renal blood flow. RVR values are percent change in renal vascular resistance. MABP and HR are percent changes in mean arterial blood pressure and heart rate, respectively, relative to controls.

Setting [3] is: read-out: MABP (mean arterial blood pressure).
Setting [4] is: read-out: dP/dt (maximum change left ventricular pressure with time).
The mark [5] stands for this setting: read-out: RBF (renal blood flow).
Where [6] appears, read: read-out: RVR (renal vascular resistance).

In the case of `Cc1nc(O)c(Cl)c2cc3c(cc12)OCO3` [AG], the change in vivo at 1.875 mg/kg in test [1] (read-out: CF (cardiac force)) is 88%; in test [1] (read-out: HR (heart rate)) it was 28%; in test [1] (setting [3]), -22%; in test [1] (setting [4]), 51%. The change in vivo at 1.2 mg/kg in test [2] (read-out: HR (heart rate)) is 27%; in test [2] (setting [3]), -27%; in test [2] (setting [5]), 10%; in test [2] (setting [6]), -34%.
Turning to `CCOc1cc2cnc(O)cc2cc1OC` [AQ], the change in vivo at 1.2 mg/kg in test [2] (read-out: HR (heart rate)) is 16%; in test [2] (setting [3]), 0%; in test [2] (setting [5]), 13%; in test [2] (setting [6]), -12%.
As to `COc1cc(Br)c2cc(O)nc(C)c2c1OC` [AU], the change in vivo at 6.2 mg/kg in test [2] (read-out: HR (heart rate)) is -3%; in test [2] (setting [3]) it was 0%; in test [2] (setting [5]) it was 20%; in test [2] (setting [6]) it was -10%.
As to `CCOc1cc2cc(O)nc(C)c2cc1OC` [AW], the change in vivo at 6.2 mg/kg in test [2] (read-out: HR (heart rate)) was 59%; in test [2] (setting [3]), -17%; in test [2] (setting [5]), 20%; in test [2] (setting [6]) it was -34%.
On to `Cc1nc(O)cc2cc(O)c(O)cc12` [Compound A], for which the change in vivo at 13.9 mg/kg was 14% in test [2] (read-out: HR (heart rate)), -9% in test [2] (setting [3]) and 30% in test [2] (setting [5]). The change in vivo at up to 13.9 mg/kg in test [2] (setting [6]) was -30%.
With `COc1ccc2cc(O)nc(C)c2c1OC` [Compound C, 3-Hydroxy-7,8-dimethoxy-1-methylisoquinoline], the change in vivo at 0.875 mg/kg in test [1] (read-out: CF (cardiac force)) is 62%; in test [1] (read-out: HR (heart rate)), 10%; in test [1] (setting [3]), -6%; in test [1] (setting [4]) it was 51%.
For the compound `Cc1nc(O)cc2ccc(O)c(O)c12` [Compound I], the change in vivo at 13.9 mg/kg in test [2] (read-out: HR (heart rate)) was 38%; in test [2] (setting [3]) it was -4%; in test [2] (setting [5]), 35%. Further, in test [2] (setting [6]), the change in vivo at up to 13.9 mg/kg is -29%.
As to `COc1cc2c(C)nc(O)c(CCC(=O)OC(C)C)c2cc1OC` [Compound R, 4-β-Carboisopropoxyethyl-3-hydroxy-6,7-dimethoxy-1-methylisoquinoline], the change in vivo at 1.875 mg/kg is 22% in test [1] (read-out: CF (cardiac force)), 3% in test [1] (read-out: HR (heart rate)), -6% in test [1] (setting [3]) and 15% in test [1] (setting [4]).
With `COC(=O)CCc1c(O)nc(C)c2cc3c(cc12)OCO3` [L], the change in vivo at 0.875 mg/kg is 131% in test [1] (read-out: CF (cardiac force)), 38% in test [1] (read-out: HR (heart rate)), -21% in test [1] (setting [3]) and 118% in test [1] (setting [4]).
Consider `CCCc1nc(O)c(CCC(=O)OC)c2cc(OC)c(OC)cc12` [M], for which the change in vivo at 1.875 mg/kg in test [1] (read-out: CF (cardiac force)) was 17%; in test [1] (read-out: HR (heart rate)), 2%; in test [1] (setting [3]), -4%; in test [1] (setting [4]) it was 19%.
In the case of `COC(=O)CCc1c(O)nc(C(C)C)c2cc(OC)c(OC)cc12` [P], the change in vivo at 1.875 mg/kg in test [1] (read-out: CF (cardiac force)) stood at 15%; in test [1] (read-out: HR (heart rate)), 7%; in test [1] (setting [3]), 3%; in test [1] (setting [4]), 17%.
For `CCOC(=O)CCc1c(O)nc(C)c2cc(OC)c(OC)cc12` [S], the change in vivo at 0.875 mg/kg in test [1] (read-out: CF (cardiac force)) was 60%; in test [1] (read-out: HR (heart rate)), 8%; in test [1] (setting [3]) it was -4%; in test [1] (setting [4]), 20%.
On to `COc1cc2c(C)nc(O)c(CCC(=O)OC3CCCC3)c2cc1OC` [T], for which the change in vivo at 0.875 mg/kg is 23% in test [1] (read-out: CF (cardiac force)), 9% in test [1] (read-out: HR (heart rate)), -3% in test [1] (setting [3]) and 29% in test [1] (setting [4]).
With `COC(=O)CCc1c(O)ncc2cc3c(cc12)OCO3` [U], the change in vivo at 1.875 mg/kg in test [1] (read-out: CF (cardiac force)) is 26%; in test [1] (read-out: HR (heart rate)) it was 6%; in test [1] (setting [3]), 0%; in test [1] (setting [4]), 28%.
Consider `CNC(=O)CCc1c(O)nc(C)c2cc(OC)c(OC)cc12` [X], for which the change in vivo at 0.875 mg/kg was 40% in test [1] (read-out: CF (cardiac force)), 4% in test [1] (read-out: HR (heart rate)), -5% in test [1] (setting [3]) and 24% in test [1] (setting [4]).
